Experiments:
amylase = test: Amylase test in vitro (amylase inhibitor unit); format: biochemical; settings: 1 AIU = amount of inhibitor for about 50% inhibition; starch substrate, pH 6.9, 35° C.
Experimental: The amylase activity of the novel amino sugar compound of the present invention was measured by the following method.
Amylase inhibitor unit (1 AIU) is defined as the amount of inhibitor required to control the amylase unit by about 50%. The amylase unit (AU) is the value of enzyme to divide 1μ equivalent of glucoside bond in starch for 1 minute under the following test conditions. The μ equivalent of this divided bond is determined as reduced μ equivalent of sugar formed by Kurie's method which uses dinitrosalicylic acid. Standard curve using maltose is given as μ equivalent of maltose equivalent. A testing solution (0-20 μl) in 0.4 ml of a solution (pH 6.9) containing 0.001 mol of CaCl2, 0-10 μg of the inhibitor and 0.02 mol of sodium glycerophosphate is added to 0.1 ml of an amylase solution (20 to 22 AU/ml). This mixture is equilibrated in a water bath of 35° C. for about 10-20 minutes. Then, this is cultured at 35° C. for 5 minutes together with 0.5 ml of a 1% starch solution (soluble starch No. 1,252 from Marck, Darmstadt) preheated to 35° C. and thereafter 1 ml of dinitrosalicylic acid reagent (P. Bernfeld, Colowick-Kaplan, Meth. Enzymol., 1, 149) is added thereto. For developing color, the batch is heated in a boiling water bath for 5 minutes and then cooled and 10 ml of distilled water is added thereto. Absorbance of 540 nm is measured in comparison with blanks prepared in the same manner without using amylase. For evaluation, amylase activity which is still effective after addition of inhibitor is read from previously recorded amylase standard curve and inhibiting rate (%) of the amylase used is calculated from said amylase activity. The inhibiting rate is plotted as function of the quotient: [formula] Inhibiting point of 50% is read from this curve and is converted to AIU/mg of the inhibitor.

Solubility in solvents = format: physicochemical
[1] = acetone, ethyl acetate, chloroform
[2] = water, methanol, dimethylformamide, dimethylsulfoxide, hot ethanol

| Amylase inhibitor unit (amylase) | Solubility in solvents (Solubility in solvents; [1]) | Solubility in solvents (Solubility in solvents; [2]) | SMILES |
| --- | --- | --- | --- |
| 3.4×10^2 AIU/mg | insoluble | soluble | OCC1=CC(NC2C(CO)OC(O[C@H]3[C@H](O)[C@@H](O)C(O)O[C@@H]3CO)C(O)C2O)C(O)C(O)C1O (some centres unmarked) [[I] (wherein n=1 and m=0)] |
| 1.2×10^3 AIU/mg |  |  | OCC1=CC(NC2C(CO)OC(O[C@H]3[C@H](O)[C@@H](O)C(O[C@H]4[C@H](O)[C@@H](O)C(O)O[C@@H]4CO)O[C@@H]3CO)C(O)C2O)C(O)C(O)C1OC1O[C@H](CO)[C@@H](O)[C@H](O)[C@H]1O (some centres unmarked) [[I] (wherein n=2, m=1)] |
| 3.6×10^2 AIU/mg | insoluble | soluble | OCC1=CC(NC2C(CO)OC(O[C@H]3[C@H](O)[C@@H](O)C(O[C@H]4[C@H](O)[C@@H](O)C(O)O[C@@H]4CO)O[C@@H]3CO)C(O)C2O)C(O)C(O)C1O (some centres unmarked) [[I] (wherein n=2 and m=0)] |
| 1.4×10^3 AIU/mg |  |  | OCC1=CC(NC2C(CO)OC(O[C@H]3[C@H](O)[C@@H](O)C(O[C@H]4[C@H](O)[C@@H](O)C(O[C@H]5[C@H](O)[C@@H](O)C(O)O[C@@H]5CO)O[C@@H]4CO)O[C@@H]3CO)C(O)C2O)C(O)C(O)C1O (some centres unmarked) [[I] (wherein n=3, m=0)] |
